These are literature values, as cited in US20060270634A1, “Acetal phosphate-derived LPA mimics, PPARgamma activators, and autotaxin inhibitors” (priority 2005, published 2006).

For data set [1], the target named is T1, LPA3 (Homo sapiens, UniProt Q9UBY5).
T1 sequence (Q9UBY5 1-353): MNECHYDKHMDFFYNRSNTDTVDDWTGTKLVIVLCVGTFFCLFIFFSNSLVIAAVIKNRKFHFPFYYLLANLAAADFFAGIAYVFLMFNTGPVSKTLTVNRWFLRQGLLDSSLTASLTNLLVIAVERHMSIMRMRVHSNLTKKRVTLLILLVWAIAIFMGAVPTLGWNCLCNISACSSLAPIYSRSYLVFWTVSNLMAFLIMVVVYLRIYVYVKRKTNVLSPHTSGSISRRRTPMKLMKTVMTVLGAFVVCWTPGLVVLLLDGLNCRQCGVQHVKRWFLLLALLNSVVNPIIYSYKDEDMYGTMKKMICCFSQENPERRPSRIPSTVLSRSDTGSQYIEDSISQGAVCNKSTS
On the set-up: expressed in transfected cells; host or cells: RH7777 rat hepatoma cells. The note with it: cited from earlier work.

The target of data set [2] is LPA1 (Homo sapiens, UniProt Q92633). Details: expressed in transfected cells; host or cells: RH7777 rat hepatoma cells. Conditions: cited from earlier work.
Chain of LPA1 (Q92633 whole entry, species assumed): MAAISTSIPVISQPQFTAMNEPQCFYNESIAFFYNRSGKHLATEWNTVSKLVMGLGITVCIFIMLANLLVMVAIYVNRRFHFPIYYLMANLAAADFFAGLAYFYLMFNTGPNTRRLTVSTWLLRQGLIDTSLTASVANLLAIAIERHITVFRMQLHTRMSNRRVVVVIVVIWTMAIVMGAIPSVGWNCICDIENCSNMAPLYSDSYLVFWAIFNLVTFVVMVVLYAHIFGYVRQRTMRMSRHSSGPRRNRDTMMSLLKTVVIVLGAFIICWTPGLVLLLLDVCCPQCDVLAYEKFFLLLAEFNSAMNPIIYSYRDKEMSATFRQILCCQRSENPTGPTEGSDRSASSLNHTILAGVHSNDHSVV

Turning to “dioctanoyl glycerol pyrophosphate [DGPP 8:0]”, the “LPA3 activity in words, previously reported” value in data set [1] is listed as “antagonists”. Moreover, in data set [2], the “LPA1 activity in words, previously reported” value is recorded as “antagonists”.
